US20260305610A1, “TRIAZOLE COMPOUND, AND PREPARATION METHOD THEREFOR, HERBICIDAL COMPOSITION AND USE THEREOF” (QINGDAO KINGAGROOT CHEMICAL COMPOUND CO., LTD., priority 2023, published 2026)

Tests used:
Assay type in all cases: in vivo
[1] = test system: weeds; test: Activity assay of compositions: soil sealing treatment (S), fresh weight inhibition and combined effect (Gowing method); settings: 21 d
Procedure: The required active ingredient B was purchased from a reagent company or a technical material manufacturer or synthesized by a conventional method. The technical materials were all dissolved with acetone solvents and diluted with aqueous solution of 0.1% Tween-80 emulsifier, which should be used immediately after dilution.
• Weeds were cultivated in a controllable sunlight greenhouse at 20 to 30° C., in natural light, and with relative humidity of 57% to 72%. […] The test soil was quantitatively filled to ¾ of the pot, and then watered from the bottom of the pot to completely wet the soil to saturation. The test weed seeds were accelerated to just germinate, and then evenly and quantitatively broadcasted on the soil surface, covered with 0.5-1 cm soil according to the sizes of the seeds, and ready for use 72 hours after sowing.
Each treatment was repeated 4 times. Four pots with 20 weed seeds sowed per pot were treated each time.
The well-sowed test materials were evenly placed on a platform with an area of 0.5 m^2, and foliage spraying was carried out by the 3WP-2000-type walking spray tower at a dosage of 450 kg/ha and a spray pressure of 0.3 MPa. After all the solution was sprayed, the air valve was closed. And 30 seconds later, the door of the spray tower was opened, and the nutritional bowl was taken out. Next, the air valve was opened, and the spray tube was cleaned by spraying 50 ml of water.
A method for investigating absolute numbers was employed. Whole seedlings of survival weeds were cut off along the soil surface with a blade, and the fresh weight of the weeds was weighed using an analytical balance. For dead weeds, the fresh weight thereof was zero.
The investigation was performed 21 days after the treatment for once in total.
The theoretical fresh weight inhibition rate of a mixed combination of each treatment was calculated by the Gowing method (E0=X+Y−X*Y/100). Then compared with the measured inhibition rate (E), the type of the combined effect of the combination of the two on weeds was evaluated, which was a synergistic effect when E−E0>10%; an antagonistic effect when E−E0<−10%; an additional effect when −10%≤E−E0≤10%. An optimal ratio was determined according to factors such as the actual control effects, characteristics of herbicides, balance of the formulation, etc. In the formula, X represents the fresh weight inhibition rate of the active ingredient A in a dosage of P; Y represents the fresh weight inhibition rate of the active ingredient B in a dosage of Q. The statistical results are shown in Table 4.

[2] = test system: monocotyledonous and dicotyledonous weeds; test: Pre-emergence test experiment (weeds); parameters: key: 9: completely dead; 8: growth control rate is greater than or equal to 90% and less than 100%; 7: growth control rate is greater than or equal to 80% and less than 90%; 6: growth control rate is greater than or equal to 70% and less than 80%; growth control rate is greater than or equal to 50% and less than 70%; 4: growth control rate is greater than or equal to 30% and less than 50%; growth control rate is greater than or equal to 20% and less than 30%; growth control rate is greater than or equal to 10% and less than 20%; growth control rate is less than 10%; 0: no effect; settings: 30 g a.i./ha
[3] = test system: major crops; test: Pre-emergence test experiment (crops); parameters: key: 9: completely dead; 8: growth control rate is greater than or equal to 90% and less than 100%; 7: growth control rate is greater than or equal to 80% and less than 90%; 6: growth control rate is greater than or equal to 70% and less than 80%; growth control rate is greater than or equal to 50% and less than 70%; 4: growth control rate is greater than or equal to 30% and less than 50%; growth control rate is greater than or equal to 20% and less than 30%; growth control rate is greater than or equal to 10% and less than 20%; growth control rate is less than 10%; 0: no effect; settings: 30 g a.i./ha
[4] = Commelina communis, B 30 g a.i./ha
[5] = Commelina communis, B 60 g a.i./ha
[6] = Lolium multiflorum, B 75 g a.i./ha
[7] = Lolium multiflorum, B 150 g a.i./ha
[8] = Eclipta prostrata, B 150 g a.i./ha
[9] = Eclipta prostrata, B 300 g a.i./ha

COC(=O)[C@@H](C)O/N=C/c1cc(-n2c(=O)cc(C(F)(F)F)n(C)c2=O)c(F)cc1Cl
Control effect of B applied alone in a corresponding dose (%) [1, 4]: 28.5%
Control effect of B applied alone in a corresponding dose (%) [1, 5]: 46.1%

CCC[S@@+]([O-])c1c(C(F)(F)F)ccc(C(=O)Nc2nnc(C)o2)c1F
Control effect of B applied alone in a corresponding dose (%) ([1]; Ammannia arenaria, B 15 g a.i./ha): 26.1%
Control effect of B applied alone in a corresponding dose (%) ([1]; Ammannia arenaria, B 30 g a.i./ha): 43.8%

CC1(C)CON(Cc2ccc(Cl)cc2Br)C1=O
Control effect of B applied alone in a corresponding dose (%) [1, 6]: 43.7%
Control effect of B applied alone in a corresponding dose (%) [1, 7]: 61.0%

CC(C)C12CCC(C)(O1)C(OCc1c(F)cccc1Br)C2 (stereo not drawn)
Control effect of B applied alone in a corresponding dose (%) ([1]; Lolium multiflorum, B 30 g a.i./ha): 55.2%
Control effect of B applied alone in a corresponding dose (%) ([1]; Lolium multiflorum, B 60 g a.i./ha): 70.4%

C[C@@H](Oc1nc(F)c(Cl)c(N)c1Cl)C(=O)OCC1CCCO1 (stereo partly drawn)
Control effect of B applied alone in a corresponding dose (%) ([1]; Silene conoidea, B 75 g a.i./ha): 48.0%
Control effect of B applied alone in a corresponding dose (%) ([1]; Silene conoidea, B 150 g a.i./ha): 54.2%

C[C@@H](Oc1nc(F)c(Cl)c(N)c1Cl)C(=O)O
Control effect of B applied alone in a corresponding dose (%) [1, 7]: 38.4%
Control effect of B applied alone in a corresponding dose (%) ([1]; Lolium multiflorum, B 300 g a.i./ha): 53.7%

Cc1ccccc1CO[C@@H]1C[C@@]2(C(C)C)CC[C@]1(C)O2 (racemic) [Cinmethylin]
Control effect of B applied alone in a corresponding dose (%) ([1]; Eclipta prostrata, B 7.5 g a.i./ha): 51.5%
Control effect of B applied alone in a corresponding dose (%) ([1]; Eclipta prostrata, B 15 g a.i./ha): 72.0%

CCOC(=O)C1(C)CC(c2cc(-n3c(=O)cc(C(F)(F)F)n(C)c3=O)c(F)cc2Cl)=NO1 (stereo not drawn) [3-[2-chloro-5-[3,6-dihydro-3-methyl-2,6-dioxo-4-(trifluoromethyl)-1(2H)-pyrimidinyl]-4-fluorophenyl]-4,5-dihydro-5-methyl-5-isoxazolecarboxylic acid ethyl ester]
Control effect of B applied alone in a corresponding dose (%) [1, 4]: 35.0%
Control effect of B applied alone in a corresponding dose (%) [1, 5]: 47.3%

CCOCN(C(=O)CCl)c1c(C)cccc1CC [Acetochlor]
Control effect of B applied alone in a corresponding dose (%) ([1]; Amaranthus retroflexus, B 150 g a.i./ha): 40.2%
Control effect of B applied alone in a corresponding dose (%) ([1]; Amaranthus retroflexus, B 300 g a.i./ha): 58.3%

COP(=S)(OC)SCC(=O)N(c1ccc(Cl)cc1)C(C)(C)C [Anilofos]
Control effect of B applied alone in a corresponding dose (%) ([1]; Eclipta prostrata, B 75 g a.i./ha): 14.2%
Control effect of B applied alone in a corresponding dose (%) [1, 8]: 23.6%

CCNc1nc(Cl)nc(NC(C)C)n1 [Atrazine]
Control effect of B applied alone in a corresponding dose (%) ([1]; Chloris virgata, B 300 g a.i./ha): 40.1%
Control effect of B applied alone in a corresponding dose (%) ([1]; Chloris virgata, B 600 g a.i./ha): 58.9%

CS(=O)(=O)c1ccc(C(=O)C2=C(Sc3ccccc3)C3CCC(C3)C2=O)c(Cl)c1 (stereo not drawn) [Benzobicyclon]
Control effect of B applied alone in a corresponding dose (%) ([1]; Eclipta prostrata, B 22.5 g a.i./ha): 49.2%
Control effect of B applied alone in a corresponding dose (%) ([1]; Eclipta prostrata, B 45 g a.i./ha): 74.0%

CC1(C)CON(Cc2ccc(Cl)cc2Cl)C1=O [Bixlozone]
Control effect of B applied alone in a corresponding dose (%) [1, 6]: 50.2%
Control effect of B applied alone in a corresponding dose (%) [1, 7]: 70.0%

CCCCOCN(C(=O)CCl)c1c(CC)cccc1CC [Butachlor]
Control effect of B applied alone in a corresponding dose (%) [1, 8]: 37.2%
Control effect of B applied alone in a corresponding dose (%) [1, 9]: 66.8%

CCC(C)Nc1c([N+](=O)[O-])cc(C(C)(C)C)cc1[N+](=O)[O-] (stereo not drawn) [Butralin]
Control effect of B applied alone in a corresponding dose (%) [1, 8]: 47.0%
Control effect of B applied alone in a corresponding dose (%) [1, 9]: 65.3%

Cc1ccc(NC(=O)N(C)C)cc1Cl [Chlorotoluron]
Control effect of B applied alone in a corresponding dose (%) ([1]; Lolium temulentum, B 375 g a.i./ha): 34.3%
Control effect of B applied alone in a corresponding dose (%) ([1]; Lolium temulentum, B 750 g a.i./ha): 59.3%

COCc1ccc(-n2cnc(C(F)(F)F)n2)nc1Oc1ccc(F)c(OC(F)(F)F)c1 [Compound 146]
Pre-emergence activity level (growth control rate) on Amaranthus retroflexus [2]: 9
Pre-emergence activity level (growth control rate) on Descurainia sophia [2]: 9
Pre-emergence activity level (growth control rate) on Digitaria sanguinalis [2]: 8 (growth control rate is greater than or equal to 90% and less than 100%)
Pre-emergence activity level (growth control rate) on Setaria viridis [2]: 9
Pre-emergence activity level (growth control rate) on Solanum nigrum [2]: 9
Pre-emergence activity level (growth control rate) on Veronica [2]: 9
Pre-emergence plant damage level (growth control rate) on Corn [3]: 0
Pre-emergence plant damage level (growth control rate) on Cotton [3]: 0
Pre-emergence plant damage level (growth control rate) on Soybean [3]: 0

COCc1ccc(-n2cnc(C(F)(F)F)n2)nc1Oc1ccc(F)c(OC(F)F)c1 [Compound 147]
Pre-emergence activity level (growth control rate) on Amaranthus retroflexus [2]: 9
Pre-emergence activity level (growth control rate) on Descurainia sophia [2]: 9
Pre-emergence activity level (growth control rate) on Digitaria sanguinalis [2]: 8 (growth control rate is greater than or equal to 90% and less than 100%)
Pre-emergence activity level (growth control rate) on Setaria viridis [2]: 9
Pre-emergence activity level (growth control rate) on Solanum nigrum [2]: 9
Pre-emergence activity level (growth control rate) on Veronica [2]: 9
Pre-emergence plant damage level (growth control rate) on Corn [3]: 0
Pre-emergence plant damage level (growth control rate) on Cotton [3]: 0
Pre-emergence plant damage level (growth control rate) on Soybean [3]: 0

COCc1ccc(-n2cnc(C(F)(F)F)n2)nc1Oc1cccc(OC(F)F)c1 [Compound 148]
Pre-emergence activity level (growth control rate) on Amaranthus retroflexus [2]: 9
Pre-emergence activity level (growth control rate) on Descurainia sophia [2]: 9
Pre-emergence activity level (growth control rate) on Digitaria sanguinalis [2]: 8 (growth control rate is greater than or equal to 90% and less than 100%)
Pre-emergence activity level (growth control rate) on Setaria viridis [2]: 9
Pre-emergence activity level (growth control rate) on Solanum nigrum [2]: 9
Pre-emergence activity level (growth control rate) on Veronica [2]: 9
Pre-emergence plant damage level (growth control rate) on Corn [3]: 0
Pre-emergence plant damage level (growth control rate) on Cotton [3]: 0
Pre-emergence plant damage level (growth control rate) on Soybean [3]: 0

COCc1ccc(-n2cnc(C(F)(F)F)n2)nc1Oc1cccc(C)c1 [Compound 149]
Pre-emergence activity level (growth control rate) on Digitaria sanguinalis [2]: 8 (growth control rate is greater than or equal to 90% and less than 100%)
Pre-emergence activity level (growth control rate) on Setaria viridis [2]: 8 (growth control rate is greater than or equal to 90% and less than 100%)
Pre-emergence plant damage level (growth control rate) on Corn [3]: 0
Pre-emergence plant damage level (growth control rate) on Cotton [3]: 0
Pre-emergence plant damage level (growth control rate) on Soybean [3]: 0

CCOC(=O)COc1ncccc1Oc1cc(-n2c(=O)cc(C(F)(F)F)n(C)c2=O)c(F)cc1Cl [Epyrifenacil]
Control effect of B applied alone in a corresponding dose (%) [1, 4]: 38.8%
Control effect of B applied alone in a corresponding dose (%) [1, 5]: 50.5%
